Here are results for one compound from patent US20100063583A1, “USE OF SOLUBLE EPOXIDE HYDROLASE INHIBITORS IN THE TREATMENT OF INFLAMMATORY VASCULAR DISEASES” (Arete Therapeutics, Inc., priority 2008, published 2010).

Entries after “also recorded” stand apart in the source; their conditions may differ.

Assay [1] concerns angiotensin II infused apolipoprotein E deficient mice. As to the kind of experiment: Angiotensin II-induced abdominal aortic aneurysm formation in apoE deficient mice. The format is in vivo. The protocol:
(§1) Six-month old apolipoprotein E deficient mice were chronically infused with angiotensin II (1.44 mg/Kg/day) for 4 weeks to induce an abdominal aortic aneurysm (AAA) and accelerate atherosclerosis development. The mice were treated with Compound 2 (1.5 g/L in drinking water) or vehicle for 4 weeks. […] These effects were associated with a reduction of serum lipid, IL-6, murine IL-8 KC and IL-1α, and down-regulation of gene expressions of ICAM-1, VCAM-1 and IL-6 in the arterial wall. […] The attendant down-regulation of inflammatory mediators and lipid lowering effects may both contribute to the observed vascular protective effects.
(§2) Six-month old male apoE deficient mice (The Jackson Laboratory, Bar Harbor, Me.) fed a normal chow (Harlan Teklad diet #2018, Harlan Laboratories, Inc., Indianapolis, Ind.) were used in this study. Baseline blood pressure and body weight were measured before surgery. Animals were anesthetized by inhalation of 2% isoflurane. The left common carotid artery was carefully dissected via a midline neck incision under a dissecting microscope, and then ligated with a 6-0 silk ligature just proximal to its bifurcation. At the time of ligation, a minipump (model 2004, Durect Corp., Cupertino, Calif.) filled with Ang II (1.44 mg/Kg/day, Phoenix Pharmaceuticals, Burlingame, Calif.) was implanted subcutaneously. The animals were randomly divided into 2 groups; Vehicle: drinking water containing 5% hydroxypropyl-beta-cyclodextrin (HPBCD) or Compound 2 in drinking water containing 1.5 mg/mL Compound 2 in 5% HPBCD. Each experimental group included 11 animals. After 4 weeks of Ang II infusion, systolic blood pressure was measured in conscious mice using a tail-cuff system (Kent Scientific Corporation, Torrington, Conn.), and the animals were euthanized. Blood samples were collected via cardiac puncture for the measurement of a serum cholesterol profile (IDEXX Veterinary Services, West Sacramento, Calif.) and serum inflammatory panel (Murigenics, Hayward, Calif.) using a mouse cytokine/chemokine panel kit (Millipore, Billerica, Mass.), and tissues were removed for analysis (see below).
Chronic infusion of Ang II induced aneurysm formation in the abdominal aorta in 7 of 11 (64%) control apoE deficient mice. Treatment with Compound 2 reduced the incidence of aneurysm formation to 18% (2 of 11). […] There was no type VI aneurysm found in this study.
There were foci of acute hemorrhage present in the intima. The intima was occasionally disrupted by plaques of Mac-3-positive foam cells on the luminal side of the internal elastic lamina. […] The thickness of the media was increased by extracellular matrix depositing between smooth muscle bundles and stained with trichrome as collagen. Elastin fibers in the media were discontinuous and irregularly oriented. The adventitia was markedly thickened by extracellular matrix that was predominately collagen. There was a modest increase in adventitial cellularity including fibroblasts and Mac-3-positive mononuclear cells. […] These vessels did have medial changes including collagen deposition and some increase in elastin fibers, but the internal elastic lamina generally remained intact and retained a distinctive media of smooth muscle.

Assay [2] shares this test system. Nature of the assay: Atherosclerotic lesion development in aortic arch and non-ligated right carotid artery of Ang II infused apoE deficient mice. In kind it is in vivo. The conditions noted are these: vs vehicle. Here is the method:
as §1
as §2, with “Blood samples were collected via cardiac puncture for the measurement of a serum cholesterol profile (IDEXX Veterinary Services, West Sacramento, Calif.) and serum inflammatory panel (Murigenics, Hayward, Calif.) using a mouse cytokine/chemokine panel kit (Millipore, Billerica, Mass.), and tissues were removed for analysis (see below).” left out

For assay [3] the test system is unchanged. Nature of the assay: Ligation-induced vascular remodeling in the left carotid artery. In kind it is in vivo. The protocol:
as §2, with “Blood samples were collected via cardiac puncture for the measurement of a serum cholesterol profile (IDEXX Veterinary Services, West Sacramento, Calif.) and serum inflammatory panel (Murigenics, Hayward, Calif.) using a mouse cytokine/chemokine panel kit (Millipore, Billerica, Mass.), and tissues were removed for analysis (see below).” left out
Ligation of the left carotid arteries for four weeks induced vascular remodeling, including neointima formation and adventitial proliferation, leading to expansive remodeling as measured by enlargement of vessel diameter. […]

In assay [4] the test system is VCAM-1, ICAM-1, IL-6, IL-1α and PPARs gene expression in the ascending aortic tissue. Nature of the assay: Expression of pro-inflammatory genes in ascending aortic tissue. The format is in vivo, mice. The conditions noted are these: vs vehicle. The protocol:
as §2
(§3) Using the animal model as reported in Martin-McNulty B, et al., 17 Beta-estradiol attenuates development of angiotensin II-induced aortic abdominal aneurysm in apolipoprotein E-deficient mice. Arterioscler Thromb Vasc Biol. 2003; 23(9):1627-1632 and Tham D M, et al., Angiotensin II is associated with activation of NF-kappaB-mediated genes and downregulation of PPARs. Physiol Genomics.

The test system of assay [5] is circulating IL-6, murine IL-8-KC, IL-1α, serum lipid. As to the kind of experiment: Serum inflammatory panel and serum lipid in Ang II infused apoE deficient mice. The format is in vivo. Here is the method:
as §2, §3

[6] abbreviates: ascending aortic tissue / arterial wall.

With `O=C(Nc1ccc(OC(F)(F)F)cc1)NC1CCN(C(=O)c2cccnc2)CC1` [Compound 2, 1-(1-nicotinoylpiperidin-4-yl)-3-(4-(trifluoromethoxy)phenyl)urea], the “average outer diameter of the suprarenal aorta” value in assay [1] (1.5 mg/mL in drinking water, 4 weeks, vs vehicle group) is on record as “significantly smaller”. Also, the “AAA formation (rate), effect in words” value in assay [1] (1.5 g/L in drinking water, 4 weeks Ang II infusion, vs vehicle) is reported as “significantly reduced; also recorded: partially prevented”. In addition, in assay [1] (Compound 2 1.5 mg/mL in drinking water (5% HPBCD), 4 weeks Ang II 1.44 mg/Kg/day, 2 of 11 mice, vehicle 64%), the “incidence of aneurysm formation” value was determined as 18%. In assay [1] (mice that developed aneurysm, vehicle group majority type III), the “aneurysm severity measured by category score” value is “majority with type 0 and I”. In addition, the “adventitia thickness (histology)” value in assay [1] (vs vehicle group (markedly thickened), 4 weeks) is “relatively thin”. Besides, in assay [1] (vs vehicle group, 4 weeks), the “intimal plaques in aorta (histological staining)” value is “fewer intimal plaques”; the “macrophage and iron accumulation in the adventitia” value was “less macrophage and no iron accumulation”; the “macrophage and iron accumulation in the intima (Mac-3, Prussian blue)” value is “no evidence of macrophage and iron accumulation”. For the same compound, the “atherosclerotic lesion area (overall)” value in assay [2] (1.5 g/L in drinking water, 4 weeks Ang II infusion) is recorded as “significantly reduced”. In addition, in assay [2] (4 weeks), the “atherosclerotic lesion size/area in the aortic arch” value is given as “significantly reduced”. Further, the “atherosclerotic lesion size/area in the carotid artery” value in assay [2] (non-ligated right carotid artery, 4 weeks) is listed as “significantly reduced”. Also, in assay [3] (Compound 2 vs vehicle group, four weeks), the “average diameter of the ligated carotid arteries” value was “not significantly different”. Besides, in assay [3] (left carotid artery ligated four weeks), the “ligation-induced vascular remodeling (neointima formation, adventitial proliferation, expansive remodeling)” value is “not affected”. Also, in assay [4] (setting [6]), the ICAM-1 gene expression result is given as “down-regulation; also recorded: significantly reduced”, the IL-6 gene expression result is listed as “down-regulation; also recorded: significantly reduced” and the VCAM-1 gene expression entry is recorded as “down-regulation; also recorded: significantly reduced”. Also, in assay [4] (ascending aortic tissue), the IL-1α gene expression entry is “did not significantly affect” and the PPARs gene expression result is “did not significantly affect”. In addition, the serum lipid entry in assay [5] (4 weeks treatment) is recorded as “reduction”. In addition, in assay [5] (vs vehicle group), the “circulating protein level of IL-6” value was “reduction; also recorded: significantly lower”, the “circulating protein level of murine IL-8-KC” value is recorded as “reduction; also recorded: significantly lower” and the “serum IL-1α” value was “reduction; also recorded: reduced”.
